Patent US8268874B2, “Anti-cancer compounds, synthesis thereof, and methods of using same” (University of Notre Dame du Lac, priority 2008, dated 2012)
Like-named read-outs stand apart in the source and are kept apart here.

What was measured:
[1] = test system: human breast cancer cell line MCF-7; assay: NCI anti-cancer drug screen, growth inhibition of MCF-7 cells; type: cell-based
Description: (§1) For additional details pertaining to the assay, see, for example, Shoemaker, R. H., The NCI60 Human Tumour Cell line Anticancer Drug Screen, Nature Reviews, 6: 813-823, 2006, the disclosure of which is hereby incorporated by reference in its entirety.
(§2) Briefly, the cell lines comprising the National Cancer Institute Anti-cancer Drug Screen panel were obtained and processed as described previously. After an initial acquisition, in vitro expansion was followed by cryopreservation of a large number of master stock samples, for serial rethawing at 20-passage intervals. The parental cells included the small cell lung carcinoma cell line UMCC-1, the human leukemia cell line HL-60, estrogen receptor-positive MCF7 and ZR-75B human breast carcinoma cells, and estrogen receptor-negative MDA-MB231 human breast carcinoma cells. The parental cells were grown in monolayers or in suspension in Eagle's minimum essential medium containing 10% fetal bovine serum, 2 mM L-glutamine, 100 units/ml penicillin, and 100 μg/ml streptomycin in 5% CO2 at 37° C.
(§3) The current version of COMPARE is configured to calculate pairwise correlations with the log10 of one of the specific National Cancer Institute cell line activity parameters GI50, TGI, or LC50. The GI50 is the National Cancer Institute designation for a time zero-corrected IC50 value and is defined as the concentration of an agent that causes a 50% growth inhibition. Thus, log10 (GI50 values) for a seed or probe compound is correlated with the corresponding data from each compound in a database.

[2] = test system: human leukemia cell line HL-60; assay: In vitro anti-cancer activity against HL-60 cells; type: cell-based; conditions: Table 1
Description: as §1, §2, §3

[3] = test system: vincristine-resistant leukemia cell line, HL-60 VCR, that overexpresses p-glycoprotein; assay: In vitro anti-cancer activity against HL-60 VCR cells; type: cell-based, human; conditions: Table 1, p-glycoprotein overexpressing
Description: as §1, §2, §3

M. tuberculosis H37Rv = assay: In vitro anti-tuberculosis activity, standard GAST assay; type: cell-based, Mycobacterium tuberculosis; conditions: in words
PC-3 (Prostate) = assay: NCI anti-cancer drug screen, growth inhibition of PC-3 cells; type: cell-based; conditions: Homo sapiens; for IC50: Table 5
Description: as §1, §2, §3
Various analogs of the oxazole triazole scaffold were prepared and tested for their anti-cancer activity in various cellular assays (testing was done as described previously).

RXF 393 (Renal) = assay: NCI anti-cancer drug screen, growth inhibition of RXF 393 cells; type: cell-based; conditions: Homo sapiens, Table 5
Description: as §1, §2
(§4) The current version of COMPARE is configured to calculate pairwise correlations with the log10 of one of the specific National Cancer Institute cell line activity parameters GI50, TGI, or LC50. […]

CAKI-1 (Renal) = assay: NCI anti-cancer drug screen, growth inhibition of CAKI-1 cells; type: cell-based; conditions: Homo sapiens, Table 5
Description: as §1, §2, §4

SR (Leukemia) = assay: NCI anti-cancer drug screen, growth inhibition of SR cells; type: cell-based; conditions: Homo sapiens, Table 5
Description: as §1, §2, §4

[4] = test system: multiple cell lines of leukemia; assay: NCI assay, multiple leukemia cell lines (FIG. 2); type: cell-based, human; conditions: applied at nanomolar concentrations
Description: FIG. 2 illustrates the potent anti-cancer activity of various compounds disclosed herein in the NCI assay using multiple leukemia cell lines, in accordance with various embodiments.
as §1

[5] = test system: multiple colon cancer cell lines; assay: NCI assay, multiple colon cancer cell lines (FIG. 3); type: cell-based, human; conditions: applied at nanomolar concentrations
Description: FIG. 3 illustrates the potent anti-cancer activity of various compounds disclosed herein in the NCI assay using multiple colon cancer cell lines, in accordance with various embodiments.
as §1

cell cycle = assay: Cell cycle arrest (FIG. 5); type: cell-based
Description: FIG. 5 illustrates cell cycle arrest showing G2/M-phase arrest in cells treated with 1,2,3-triazole 9c (ND-6732), in accordance with various embodiments.
Without being bound by theory, it is believed that the anti-cancer activity of various disclosed compounds disclosed herein is due to antimitotic activity.

[6] = Homo sapiens, MCF7, Table 2, SAR truncation of aryl ether moiety, read-out: MCF7 IC50
[7] = Homo sapiens, MCF7, Table 5, read-out: IC50 MCF-7 (Breast)
[8] = MCF7, Table 1, human breast cancer cell line MCF-7, read-out: IC50 MCF-7
[9] = Homo sapiens, MCF7, Table 3, SAR truncation of aryl carboxamide moiety, read-out: MCF7 IC50
[10] = Homo sapiens, MCF7, read-out: IC50 MCF-7 (Breast)

Compound | IC50 [1, 7] | IC50 (PC-3 (Prostate)) | also measured
COc1cc2c(cc1O)CC[C@@H]1[C@@H]2CC[C@]2(C)[C@@H](O)CC[C@@H]12 [2-methoxyestradiol] |  |  | IC50 ([1]; Table 1, human breast cancer cell line MCF-7, read-out: IC50 MCF-7): 1300 nM; IC50 [2]: 9150 nM; IC50 [3]: 48000 nM
O=C(OCc1ccccc1)[C@@H]1COC(c2ccccc2OCc2ccccc2)=N1 [Compound 2] |  |  | anti-tuberculosis activity (M. tuberculosis H37Rv): exhibited anti-tuberculosis activity with potency similar to that of Mycobactin S
COc1ccc(CNC(=O)c2coc(-c3cccc(Cl)c3)n2)cc1OC [Compound 3] |  |  | anti-tuberculosis activity (M. tuberculosis H37Rv): active against M. tuberculosis
C#CCNC(=O)c1coc(-c2ccccc2)n1 [Compound 8a] |  |  | IC50 [1, 6]: > 20000 nM
O=C(NCc1cn(Cc2ccccc2)nn1)c1coc(-c2ccccc2)n1 [Compound 9a] |  |  | IC50 [1, 6]: 4000 nM
O=C(NCc1cn(Cc2cccc(Oc3ccccc3)c2)nn1)c1coc(-c2ccccc2)n1 [Compound 9c] | 302 nM | 504 nM | GI50 ([1]; Homo sapiens, MCF7): 302 nM; IC50 [1, 6]: 500 nM; IC50 [1, 8]: 500 nM; IC50 [2]: 7900 nM; IC50 ([3]; Homo sapiens, HL60/VCR): 12200 nM; GI50 (PC-3 (Prostate)): 504 nM; IC50 (RXF 393 (Renal)): 299 nM; IC50 (CAKI-1 (Renal)): 392 nM; IC50 (SR (Leukemia)): 484 nM; growth inhibition of multiple cell lines of leukemia [4]: ≥ 50%; growth inhibition of multiple cell lines of colon cancer [5]: ≥ 50%; cell cycle arrest (cell cycle): cell cycle arrest at the G2M phase of mitosis
O=C(NCc1cn(Cc2cccc(Oc3ccccc3)c2)nn1)c1ccccn1 [Compound 14] |  |  | IC50 [1, 9]: 70 nM
O=C(NCc1cn(Cc2cccc(Oc3ccccc3)c2)nn1)c1cocn1 [Compound 15] |  |  | IC50 [1, 9]: 1000 nM
O=C(NCc1cn(Cc2cccc(Oc3ccccc3)c2)nn1)c1ccccc1 [Compound 16] |  |  | IC50 [1, 9]: 200 nM
CC(=O)NCc1cn(Cc2cccc(Oc3ccccc3)c2)nn1 [Compound 17] |  |  | IC50 [1, 9]: 6000 nM
COc1ccc(-c2nc(C(=O)Nc3cn(Cc4ccc(Oc5ccccc5)cc4)nn3)co2)cc1 [ND-007887] | 937 nM | 1250 nM | 
COc1ccc(-c2nc(CNCc3cn(Cc4ccc(Oc5ccccc5)cc4)nn3)co2)cc1 [ND-008169] | 3000 nM | 10000 nM | 
CCCCCCCCn1cc(CNCc2coc(-c3ccc(OC)cc3)n2)nn1 [ND-008171] | 15000 nM | > 100000 nM | 
COc1ccc(-c2ccc(CNCc3cn(Cc4ccc(Oc5ccccc5)cc4)nn3)s2)cc1 [ND-008174] | 3000 nM | 10000 nM | 
CC(C)(C)[Si](C)(C)Oc1cccc(Cn2cc(CNC(=O)c3coc(-c4ccc(Cl)cc4)n3)nn2)c1 [ND-008183] |  | > 50000 nM | IC50 [1, 10]: 13000 nM
O=C(NCc1cn(Cc2cccc(Oc3ccccc3)c2)nn1)c1coc(-c2ccc(Cl)cc2)n1 [ND-008186] | 4000 nM | 2400 nM | 
Cc1ccc(Cn2cc(CNC(=O)c3coc(-c4ccc(C)cc4)n3)nn2)cc1 [ND-008465] | 8000 nM | 20000 nM | 
Cc1ccc(-c2nc(C(=O)NCc3cn(Cc4cccc(Oc5ccccc5)c4)nn3)co2)cc1 [ND-008467] | 300 nM | 1000 nM | 
Cc1ccc(-c2nc(C(=O)NCc3cn(Cc4cccc(O[Si](C)(C)C(C)(C)C)c4)nn3)co2)cc1 [ND-008468] |  | 20000 nM | IC50 [1, 10]: 15000 nM
CCCCCCCCn1cc(CNC(=O)c2coc(-c3ccc(C)cc3)n2)nn1 [ND-008469] | 20000 nM | > 20000 nM | 
Cc1ccc(-c2nc(C(=O)NCc3cn(C45CC6CC(CC(C6)C4)C5)nn3)co2)cc1 [ND-008470] | > 20000 nM | > 20000 nM | 
O=C(NCc1cn(C23CC4CC(CC(C4)C2)C3)nn1)c1coc(-c2ccc(Cl)cc2)n1 [ND-008471] | > 20000 nM | > 20000 nM | 
CC(=O)NCc1cn(Cc2cccc(Oc3ccccc3)c2)nn1 [ND-008492] | 6000 nM | 17000 nM | 
OCc1cn(Cc2cccc(Oc3ccccc3)c2)nn1 [ND-008493] | > 20000 nM | > 20000 nM | 
O=C(NCc1cn(Cc2cccc(Oc3ccccc3)c2)nn1)c1ccccn1 [ND-008504] | 150 nM | 300 nM | 
O=C(NCc1cn(Cc2cccc(Oc3ccccc3)c2)nn1)c1cocn1 [ND-008505] | 1000 nM | 1000 nM | 
O=C(NCc1cn(Cc2cccc(Oc3ccccc3)c2)nn1)c1ccccc1 [ND-008506] | 200 nM | 500 nM | 
CC[C@]1(O)C[C@H]2CN(CCc3c([nH]c4ccccc34)[C@@](C(=O)OC)(c3cc4c(cc3OC)N(C=O)[C@H]3[C@@](O)(C(=O)OC)[C@H](OC(C)=O)[C@]5(CC)C=CCN6CC[C@]43[C@@H]65)C2)C1 [vincristine] |  |  | IC50 [1, 8]: 200 nM; IC50 [2]: 570 nM; IC50 ([3]; Homo sapiens, HL60/VCR): > 100000 nM
Mycobactin S [reference compound] |  |  | anti-tuberculosis activity (M. tuberculosis H37Rv): exhibits anti-tuberculosis activity
